We go through eight compounds from patent publication US20200121812A1 (Teva Pharmaceuticals International GmbH, priority 2015, published 2020).

One data set deals with 6-OHDA lesioned rats. Conditions: cited from earlier work; for effectiveness on motor performance compared to L-DOPA: as disclosed in WO2014/122184A1.
For another data set, the system named is striatal dopamine. The conditions noted are these: cited from earlier work; for increase and prolongation of the output of striatal dopamine: WO2004/056724 and WO2007/093450.
The next data set concerns Parkinson models. The conditions noted are these: cited from earlier work.
Data set [1] concerns striatum (extracellular L-DOPA, DA and metabolites). Description: Microdialysis in Wistar Rats (striatal dialysate levels after COMTi pretreatment). In kind it is in vivo. The conditions noted are these: COMTi 30 mg/kg p.o. 2 hours before SD-1077/Carbidopa 50/25 mg/kg p.o.; FIG. 4.
In data set [2] the test system is advanced PD patients with motor fluctuations. Description: Clinical trial of opicapone add on to deuterated levodopa/carbidopa. In kind it is in vivo, human. The conditions noted are these: add on opicapone 20 mg once daily, 12 weeks; expected.
The conditions of data set [3]: cited from earlier work.
In another data set the test system is dopamine in the striatum. The data set can be described thus: Microdialysis in Sprague-Dawley rats. In kind it is in vivo.
For data set [4] the following is noted: cited from earlier work. The source holds these as a separate data set.
Setting [5] is: opicapone before levodopa (sequential dosing) compared to concomitant administration, US2014/0045900A1.
The mark [6] stands for this setting: plus carbidopa, compared to conventional levodopa plus carbidopa.

Consider `[2H]C([2H])(c1ccc(O)c(O)c1)[C@]([2H])(N)C(=O)O` [α,β,β-D3-L-DOPA, L-2-Amino-2,3,3-trideutero-3-(3,4-dihydroxyphenyl) propionic acid], for which the “effectiveness on motor performance compared to L-DOPA” value (from here on “effectiveness … compared to L-DOPA”) in the data set on 6-OHDA lesioned rats is “as effective as L-DOPA at lower doses”. In addition, the “increase and prolongation of the output of striatal dopamine” value in the data set on striatal dopamine is reported as “significantly more than L-DOPA”. For the same compound, the “striatal dopamine levels compared to L-DOPA” value in the data set with striatal dopamine (in vivo) is given as “higher longer-lasting”. Also, the “equi-effective dose compared to L-DOPA” value in the data set with Parkinson models (in vivo) is “about 60%”. In addition, the “motor activity compared to L-DOPA” value in the data set on Parkinson models (several Parkinson models, Malmlof et al.) is “improved”.
For the compound “L-2-amino-2,3,3*-trideutero-3-(3,4-dihydroxyphenyl) propionic acid [Composition 1]”, in the data set with 6-OHDA lesioned rats, the “effectiveness … compared to L-DOPA” value was “as effective as L-DOPA at lower doses”. The “observed dyskinesia side effects relative to levodopa” value with 6-OHDA lesioned rats (rat model of Parkinson's disease, at equivalent motor effect, WO2014/122184A1) is on record as 50%. Besides, in the data set on 6-OHDA lesioned rats (rat model of Parkinson's disease, WO2014/122184A1), the “dose yielding equivalent motor effect to levodopa, as % of the levodopa dose” value was 35%.
Regarding `Cc1c(Cl)c(C)[n+]([O-])c(Cl)c1-c1noc(-c2cc(O)c(O)c([N+](=O)[O-])c2)n1` [opicapone, 2,5-dichloro-3-[5-(3,4-dihydroxy-5-nitrophenyl]-1,2,4-oxadiazol-3-yl)-4,6-dimethylpyridine 1-oxide], the “extracellular striatal levels of deuterated L-DOPA (SD-1077)” value in data set [1] is “more effective than entacapone”. Besides, the “increase of ON time without dyskinesia compared to placebo” value in data set [2] is on record as “about 40 min”. In data set [3] (Parkinson's patients), the levodopa exposure entry is “increase levodopa exposure in a dose-dependent manner” and the motor outcomes was “improve”. Moreover, the “food effect on rate and extent of absorption” value in data set [3] (US2014/0045900A1) is listed as “marked food effect”. For the same compound, in data set [3] (setting [5]), the “levodopa Cmax” value is recorded as “decrease” and the levodopa systemic exposure entry was “increase”.
With `N[C@@H](Cc1ccc(O)c(O)c1)C(=O)O` [levodopa], the “dopamine in the extracellular space in the striatal brain tissue” value in the data set on dopamine in the striatum (plus carbidopa) is “increase”. Also, in data set [4] (in vivo), the half life result is “about 1.5 hours”. The “share of an oral dose that reaches the brain” value in data set [4] (oral) is reported as 1%.
On to `Cc1ccc(C(=O)c2cc(O)c(O)c([N+](=O)[O-])c2)cc1` [tolcapone], for which, in data set [3] (after market launch), the hepatotoxicity result is on record as “several cases of hepatotoxicity”. Also, the “crossing of the BBB” value in data set [3] (in vivo) is given as “crosses the BBB”.
As to `[2H][C@@H](c1ccc(O)c(O)c1)[C@]([2H])(N)C(=O)O` [α,β-D2-L-DOPA, S/S-2-amino-2,3-dideutero-3-(3,4-dihydroxyphenyl) propionic acid], the “effectiveness … compared to L-DOPA” value with 6-OHDA lesioned rats is listed as “as effective as L-DOPA at lower doses”. Besides, in the data set on striatal dopamine, the “increase and prolongation of the output of striatal dopamine” value was “significantly more than L-DOPA”. Also, in the data set on striatal dopamine (compared with L-DOPA and α,β,β-D3-L-DOPA), the striatal dopamine concentrations entry is on record as “highest”.
Consider `[2H]C([2H])(c1ccc(O)c(O)c1)[C@]([2H])(N)C(=O)O` [d3-L-DOPA], for which, in the data set with dopamine in the striatum (50 mg/kg ip, rats, compared to conventional L-DOPA (50 mg/kg ip), FIG. 1), the “bioavailability of d3-dopamine in the striatum” value is given as “significantly increased”.
Turning to `[2H]C([2H])(c1ccc(O)c(O)c1)[C@]([2H])(N)C(=O)O` [Deulevodopa], in the data set on dopamine in the striatum (setting [6]), the central bioavailability result is on record as “increased” and the “half life of dopamine” value is “about doubled”.
